Assay results taken from PMC5274652, “Antagonizing Retinoic Acid Receptors Increases Myeloid Cell Production by Cultured Human Hematopoietic Stem Cells” (Archivum Immunologiae et Therapiae Experimentalis, 2016).

Columns and labels:
[1] = system: zebra fish embryos; set-up: method as in Wai et al. 2015; details: 10 nM, ref Wai et al. 2015; cited from earlier work
[2] = target: T1, RARγ (Homo sapiens, UniProt P13631); test: Retinoid receptor transactivation assay in transfected CV-1 cells, RARγ; type: cell-based
T1 construct: expressed in transfected cells; host or cells: CV-1 kidney fibroblast cells
T1 sequence (P13631 185-419 limits assumed): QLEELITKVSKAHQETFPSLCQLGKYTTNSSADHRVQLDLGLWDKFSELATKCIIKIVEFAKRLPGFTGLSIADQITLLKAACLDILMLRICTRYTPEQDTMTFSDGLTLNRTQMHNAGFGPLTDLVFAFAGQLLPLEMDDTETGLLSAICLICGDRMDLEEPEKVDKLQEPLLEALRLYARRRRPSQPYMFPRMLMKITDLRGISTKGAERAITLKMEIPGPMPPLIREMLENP
Source text: (§1) For transactivation studies, we used CV-1 kidney fibroblast cells and LNCaP prostate adenocarcinoma cells that can be readily and reproducibly transfected with plasmids and reporters. Transactivation assays using CV-1 cells were undertaken essentially as described previously (Nagpal et al. [1995]). Briefly, CV-1 cells were transiently transfected with a plasmid-containing ERE-tk-Luc promoter-reporter construct using Lipofectamine as described in the manufacturer’s protocol (Fisher Scientific, Loughborough, UK). ERE-tk-Luc transcript comprises a luciferase reporter under control of an estrogen receptor response element. The cells were also transiently transfected with expression vector encoding a fusion protein containing the ligand-binding domain of RARα, RARβ, or RARγ fused to an estrogen receptor DNA-binding domain. Twenty-four hours after transfection, the cells were treated with retinoids under test for 16 h in culture medium-containing 2.5 % charcoal-treated FBS and lysed for determination of luciferase and β-galactosidase activities. Luciferase activity was measured using the Dual-Luciferase Reporter 100 Assay System (Promega, Southampton, UK), and β-galactosidase activity was determined by colorimetric assay. The reporter activity was normalized against β-galactosidase activity. […]

[3] = target: T2, RARα (Homo sapiens, UniProt P10276)
T2 sequence (P10276 183-417 limits assumed): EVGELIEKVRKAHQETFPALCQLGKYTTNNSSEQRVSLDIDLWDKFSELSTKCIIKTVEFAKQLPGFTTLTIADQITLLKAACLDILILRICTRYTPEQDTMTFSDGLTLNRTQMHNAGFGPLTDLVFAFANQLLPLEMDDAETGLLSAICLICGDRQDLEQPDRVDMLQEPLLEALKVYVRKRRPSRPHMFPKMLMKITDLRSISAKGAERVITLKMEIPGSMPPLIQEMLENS
Source text: as §1

[4] = system: KG1 cells; test: Differentiation of KG1 cells (CD11b/CD14 flow cytometry); type: cell-based, human; details: KG1 cells, 1 μM combined with 10 nM 1,25D, 96 h
Experimental: (§2) NB-4 and KG1 cells were obtained from the German Resource Center for Biological Material (DSMZ GmbH, Braunschweig, Germany). The cells were grown in RPMI-1640 medium supplemented with 10 % fetal bovine serum (FBS), 100 U/ml penicillin, and 100 µg/ml streptomycin (Sigma, St Louis, MO, USA). Cells were grown at 37 °C in 5 % CO2.
(§3) The expression of differentiation markers at the cell surface was determined by flow cytometry. Differentiation of NB-4 and KG1 cells was measured by staining using the monoclonal antibodies CD11b-FITC and CD14-PE and appropriately labeled isotype controls (all from ImmunoTools, Friesoythe, Germany). Differentiation of human CD34^+ve cells was measured by triple-color staining using various cocktails of phycoerythrin-, fluorescein isothyocyanate-, and PerCP-monoclonal antibodies (from Becton–Dickinson, San Jose, CA, USA). The markers used to identify cell populations were as follows: CD45^+ve leukocytes; CD34^+ve/CD133^+ve HSCs; CD33^+ve/CD13^+ve immature myeloid; CD117^+ve myeloblasts and promyelocytes; CD11b^+ve/CD15^+ve mature myeloid; CD11b^+ve/CD65^+ve neutrophils; CD11b^+ve/CD14^+ve monocytes; glycophorin^+ve A erythroid cells; CD61^+ve megakaryoblasts and platelets; CD2^+ve/CD5^+ve/CD7^+ve T cells and NK cells; CD56^+ve NK cells; CD19^+ve/CD20^+ve B cells; and CD10^+ve B lymphocyte progenitors; and present on mature neutrophils and DR^+ve progenitors and present on mature monocytes. The cells were stained with 1 µl of the fluorescently labeled antibody (or the appropriate control immunoglobulin) for 1 h on ice. Next, they were washed with ice-cold phosphate-buffered saline (PBS) and suspended in 0.5 ml PBS supplemented with 0.1 % bovine serum albumin (Sigma, St Louis, MO, USA) prior to analysis on FACS Calibur flow cytometer (Becton–Dickinson, San Jose, CA, USA). The acquisition parameters were set for an isotype control. Cells were analyzed using a FACSCalibur, and data analysis was performed using the CellQuest Pro software (Becton–Dickinson, San Jose, CA, USA).

[5] = system: NB-4 cells; test: Differentiation of NB-4 cells (CD11b/CD14 flow cytometry); type: cell-based, human; details: NB-4 cells, 96 h
Experimental: as §2, §3

[6] = target: T3, RARβ (Homo sapiens, UniProt P10826); test: Retinoid receptor transactivation assay in transfected CV-1 cells, RARβ; type: cell-based
T3 construct: expressed in transfected cells; host or cells: CV-1 kidney fibroblast cells
T3 sequence (P10826 183-417 limits assumed): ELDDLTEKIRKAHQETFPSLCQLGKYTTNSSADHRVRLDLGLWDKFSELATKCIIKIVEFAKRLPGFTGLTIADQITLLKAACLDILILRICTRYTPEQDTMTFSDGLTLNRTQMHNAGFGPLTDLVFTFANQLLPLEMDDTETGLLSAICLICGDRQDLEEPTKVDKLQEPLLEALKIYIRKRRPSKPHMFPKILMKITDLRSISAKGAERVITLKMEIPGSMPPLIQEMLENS
Source text: as §1

concentration at which RARγ is activated (reporter assays) ([2]; discussion, order of magnitude) | ATRA concentration of maximal activation, RARγ ([2]; transfected CV-1 cells) | concentration required to activate RARα (reporter assays) ([3]; discussion, order of magnitude) | ATRA concentration at which maximal effect on RARα transactivation is observed ([3]; transfected CV-1 cells) | ATRA concentration of maximal activation, RARβ [6] | Compound | effect on stem cell populations and development [1] | CD11b+ve/CD14+ve cells (monocyte differentiation) [4] [%] | CD11b+ve/CD14+ve cells (monocyte differentiation) ([5]; 1 μM combined with 10 nM 1,25D) | CD11b+ve/CD14+ve cells (monocyte differentiation) ([5]; 1 μM, alone)
– | – | – | – | – | CC1(C)CCC(C)(C)c2cc(/C(=N\O)c3cc4cc(C(=O)O)ccc4[nH]3)ccc21 [AGN205327] | Stem cell populations were maintained at the expense of the development of bones and neural ganglia | – | – | –
~10^−10 M | ~ 5 × 10^−9 M | ~10^−8 M | ~10^−7 M | ~ 5 × 10^−9 M | CC1=C(/C=C/C(C)=C/C=C/C(C)=C/C(=O)O)C(C)(C)CCC1 [ATRA, all-trans retinoic acid] | – | 26 | ~ 36% | ~ 10%
